# From patent publication US20180360791A1, “FATTY ACID MONOGLYCERIDE COMPOSITIONS” (Stiefel Laboratories, Inc., priority 2009, published 2018)
# Structures can show the parent of a compound that is named as a salt.
# Key:
# [1] = system: Trichophyton mentagrophytes; experiment: Liquid broth assay (MIC); type: cell-based; details: for MIC: Trichophyton mentagrophytes, 672 h, liquid (broth) culture, incubated up to 4 weeks, one value without distinguishing the two dermatophytes, read-out: minimal inhibitory concentration (MIC); for antifungal activity ranking: liquid broth assay, rank 1 = most active, same ranking for both dermatophytes
# Method: (§1) The minimum inhibitory concentration (MIC) of various test agents were tested in a standard protocol against two dermatophytes: Trichophyton rubrum and Trichophyton mentagrophyles:
# (§2) Trichophyton rubrum and Trichophyton mentagrophytes were grown on potato dextrose agar (PDA) at 30° C. for 1-5 weeks. One clone was picked randomly and grown in sabouraud dextrose broth (SDB) to a density of 1×10^6 colony forming units (cfu) per ml. Various concentrations of test agents were added to the dermatophyte cultures and incubated for up to 4 weeks. Each week, an aliquot of the liquid culture was taken and placed on a PDA plate, and incubated for up to 3 weeks to assess growth. The plates were examined and photographed each week. Cultures were considered positive when more than 2 colonies were found per plate.
# Trichophyton rubrum = experiment: Liquid broth assay (MIC); type: cell-based; details: for MIC: Trichophyton rubrum, 672 h, liquid (broth) culture, incubated up to 4 weeks, one value without distinguishing the two dermatophytes, read-out: minimal inhibitory concentration (MIC); for antifungal activity ranking: liquid broth assay, rank 1 = most active, same ranking for both dermatophytes
# Method: as §1, §2
SMILES,MIC [1],MIC (Trichophyton rubrum),antifungal activity ranking [1],antifungal activity ranking (Trichophyton rubrum)
"CCCCCCCCCC(=O)OCC(O)CO (racemic) [1-monocaprin, 1-decanoyl-rac-glycerol]",250 µg/mL,250 µg/mL,5,5
"CCCCc1ccc(C(=O)O)nc1 [Fusaric acid, fusaric Acid]",500 µg/mL,500 µg/mL,6,6
CC(=O)N1CCN(c2ccc(OCC3COC(Cn4ccnc4)(c4ccc(Cl)cc4Cl)O3)cc2)CC1 (stereo not drawn) [ketoconazole],,,3,3
Clc1ccc(C(Cn2ccnc2)OCc2ccsc2Cl)c(Cl)c1 (stereo not drawn) [tioconazole],,,2,2

# Continued, in another order:
MIC [1],MIC (Trichophyton rubrum),SMILES,antifungal activity ranking [1],antifungal activity ranking (Trichophyton rubrum)
< 3.9 µg/mL,< 3.9 µg/mL,"CN(C/C=C/C#CC(C)(C)C)Cc1cccc2ccccc12 [Terbinafine, terbinafine HCl]",1,1
31.3 µg/mL,31.3 µg/mL,Cc1cc(C2CCCCC2)n(O)c(=O)c1 [ciclopirox],4,4
< 3.9 µg/mL,< 3.9 µg/mL,"Clc1ccc(COC(Cn2ccnc2)c2ccc(Cl)cc2Cl)cc1 (stereo not drawn) [econazole, econazole Nitrate]",1,1
